ChEMBL document CHEMBL1201862, “PubChem BioAssay data set” (2004)
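A five-concentration, 48-hour dose response in 96-well plates underlies each endpoint, interpolated linearly between surrounding concentrations. Here, GI50 denotes the concentration required for 50% inhibition of growth.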 Activity calls are given as the source filed them. Cut-off read from the data, not from the text of the source: active = GI50 up to about 1.1 µM and inactive = higher.

Experiments:
Assay in all cases: NCI anticancer screen, dose series, 48 h
IGROV-1 = tested on: IGROV-1
OVCAR-4 = tested on: OVCAR-4
MCF7 = tested on: MCF7
LOX IMVI = tested on: LOX IMVI
Malme-3M = tested on: Malme-3M
A498 = tested on: A498
SF-295 = tested on: SF-295
EKVX = tested on: EKVX
SK-MEL-2 = tested on: SK-MEL-2
OVCAR-8 = tested on: OVCAR-8
HOP-92 = tested on: HOP-92
MOLT-4 = tested on: MOLT-4
SK-MEL-28 = tested on: SK-MEL-28
786-0 = tested on: 786-0
HOP-62 = tested on: HOP-62
OVCAR-5 = tested on: OVCAR-5
MDA-MB-435 = tested on: MDA-MB-435
HL-60 = tested on: HL-60
SR = tested on: SR
CCRF-CEM = tested on: CCRF-CEM

SMILES	GI50 (IGROV-1)	GI50 (OVCAR-4)	GI50 (MCF7)	GI50 (LOX IMVI)	GI50 (Malme-3M)	GI50 (A498)	GI50 (SF-295)	GI50 (EKVX)	GI50 (SK-MEL-2)	GI50 (OVCAR-8)	GI50 (HOP-92)	GI50 (MOLT-4)	GI50 (SK-MEL-28)	GI50 (786-0)	GI50 (HOP-62)	GI50 (OVCAR-5)	GI50 (MDA-MB-435)	GI50 (HL-60)	GI50 (SR)	GI50 (CCRF-CEM)
C[N+](C)(C)CCN[N+]1(C)CCCc2ccccc21 (centres undefined)	> 100 µM (inactive)	> 100 µM (inactive)	> 100 µM (inactive)	> 100 µM (inactive)	23 µM (inactive)	17.7 µM (inactive)	> 100 µM (inactive)	> 100 µM (inactive)	> 100 µM (inactive)	> 100 µM (inactive)	> 100 µM (inactive)	31 µM (inactive)	> 100 µM (inactive)	33.3 µM (inactive)	> 100 µM (inactive)	> 100 µM (inactive)	> 100 µM (inactive)	0.67 µM (active)	50.2 µM (inactive)	
O=C(CN1C(=O)c2ccccc2C1=O)C(O)CN1C(=O)c2ccccc2C1=O (centres undefined)	43.7 µM (inactive)	98.4 µM (inactive)	> 100 µM (inactive)	92.3 µM (inactive)		87.1 µM (inactive)	31.3 µM (inactive)	76.2 µM (inactive)	> 100 µM (inactive)	46.5 µM (inactive)	32.4 µM (inactive)	> 100 µM (inactive)	> 100 µM (inactive)	28 µM (inactive)	17.9 µM (inactive)	> 100 µM (inactive)	34.1 µM (inactive)	44.7 µM (inactive)	> 100 µM (inactive)	
COC1(OC)CC(CO)(CNc2nc(N)nc(Cl)c2/C=N\O)C1	21.3 µM (inactive)	29.5 µM (inactive)	24.1 µM (inactive)	22.7 µM (inactive)	20.8 µM (inactive)	18.5 µM (inactive)	33.3 µM (inactive)	22.7 µM (inactive)		54.7 µM (inactive)	13.6 µM (inactive)	15.3 µM (inactive)	48.9 µM (inactive)	44.2 µM (inactive)	23.2 µM (inactive)	20.7 µM (inactive)	31.5 µM (inactive)	39.3 µM (inactive)	13.4 µM (inactive)	47.1 µM (inactive)
CC(C)(C)/C(=N\Nc1nc2ccccc2[nH]1)c1ccccn1	80.7 µM (inactive)	53.7 µM (inactive)	24.9 µM (inactive)	> 100 µM (inactive)	9.18 µM (inactive)	> 100 µM (inactive)			> 100 µM (inactive)	> 100 µM (inactive)	24.9 µM (inactive)	59.6 µM (inactive)	> 100 µM (inactive)	> 100 µM (inactive)	> 100 µM (inactive)		> 100 µM (inactive)		> 100 µM (inactive)	46.1 µM (inactive)
N#C/C(=C\c1cn(Cc2ccccc2)c2ccccc12)c1nn(-c2ccccc2)c(N)c1C#N	12.8 µM (inactive)	3.24 µM (inactive)	28.2 µM (inactive)	32.2 µM (inactive)	21.4 µM (inactive)	16.7 µM (inactive)	11.1 µM (inactive)	8.07 µM (inactive)	4.65 µM (inactive)	10.1 µM (inactive)	8.41 µM (inactive)	26.1 µM (inactive)	27.7 µM (inactive)	7.83 µM (inactive)		18.8 µM (inactive)	20.6 µM (inactive)	41.5 µM (inactive)	24.7 µM (inactive)	19.1 µM (inactive)
COC(=O)c1cccc(COc2ccc([N+](=O)[O-])cc2Cl)c1	> 100 µM (inactive)	58.3 µM (inactive)	> 100 µM (inactive)	85.5 µM (inactive)	> 100 µM (inactive)	36.5 µM (inactive)	> 100 µM (inactive)	37.4 µM (inactive)	> 100 µM (inactive)	> 100 µM (inactive)	44.5 µM (inactive)	> 100 µM (inactive)	> 100 µM (inactive)	> 100 µM (inactive)	> 100 µM (inactive)	> 100 µM (inactive)	> 100 µM (inactive)		> 100 µM (inactive)	63.4 µM (inactive)
C/C(=N\NC(=S)NCCCCNC(=S)N/N=C(\C)c1ccccn1)c1ccccc1	0.736 µM (active)	1.43 µM (inactive)	0.416 µM (active)	0.845 µM (active)	0.845 µM (active)	3.05 µM (inactive)	0.982 µM (active)	2.23 µM (inactive)	6.71 µM (inactive)	0.337 µM (active)	1.55 µM (inactive)	0.556 µM (active)	2.05 µM (inactive)	6.18 µM (inactive)	0.745 µM (active)	1.98 µM (inactive)	> 100 µM (inactive)		0.317 µM (active)	0.391 µM (active)
CCN1CC2(COC)C(O)CC(OC)C34C5CC6(O)C(OC)C=C(C5C6OC(=O)c5ccc(OC)c(OC)c5)C(C(OC)C23)C14 (centres undefined)	> 7.5 µM (inactive)	> 7.5 µM (inactive)	> 7.5 µM (inactive)	> 7.5 µM (inactive)	> 7.5 µM (inactive)	> 7.5 µM (inactive)	> 7.5 µM (inactive)	> 7.5 µM (inactive)	> 7.5 µM (inactive)	> 7.5 µM (inactive)	> 7.5 µM (inactive)		> 7.5 µM (inactive)	> 7.5 µM (inactive)		> 7.5 µM (inactive)	> 7.5 µM (inactive)	> 7.5 µM (inactive)	> 7.5 µM (inactive)	> 7.5 µM (inactive)
COc1ncnc2c1cnn2Cc1cn(COCC(O)CO)nn1 (centres undefined)	> 100 µM (inactive)	> 100 µM (inactive)	> 100 µM (inactive)	> 100 µM (inactive)		> 100 µM (inactive)	> 100 µM (inactive)	> 100 µM (inactive)	> 100 µM (inactive)	> 100 µM (inactive)	22.8 µM (inactive)	> 100 µM (inactive)	> 100 µM (inactive)	> 100 µM (inactive)	> 100 µM (inactive)	> 100 µM (inactive)	> 100 µM (inactive)	> 100 µM (inactive)	> 100 µM (inactive)	> 100 µM (inactive)
Cc1c(C)c(C)c(-n2c(=O)n(C)c(=O)n2-n2c(=O)n(C)c(=O)n2-c2c(C)c(C)c(C)c(C)c2C)c(C)c1C	51.5 µM (inactive)	> 100 µM (inactive)	> 100 µM (inactive)	92.5 µM (inactive)	> 100 µM (inactive)	> 100 µM (inactive)		> 100 µM (inactive)	> 100 µM (inactive)	> 100 µM (inactive)	> 100 µM (inactive)	40 µM (inactive)	> 100 µM (inactive)	> 100 µM (inactive)		> 100 µM (inactive)	> 100 µM (inactive)	12.1 µM (inactive)	20.5 µM (inactive)	
N=C1N(S(=O)(=O)c2ccccc2)[C@@H](Cc2ccccc2)[C@H](c2ccccc2)C1(c1ccccc1)c1ccccc1	> 100 µM (inactive)	> 100 µM (inactive)	> 100 µM (inactive)	> 100 µM (inactive)	> 100 µM (inactive)	> 100 µM (inactive)	> 100 µM (inactive)	37.2 µM (inactive)	> 100 µM (inactive)	41 µM (inactive)		16.8 µM (inactive)	> 100 µM (inactive)	> 100 µM (inactive)	> 100 µM (inactive)	> 100 µM (inactive)	> 100 µM (inactive)	4.12 µM (inactive)	41.3 µM (inactive)	27.2 µM (inactive)
COc1ccc(N2C(=O)/C(=C\c3cccc(Oc4ccccc4)c3)S(=O)(=O)C2c2ccccc2)cc1 (centres undefined)		28.6 µM (inactive)	26 µM (inactive)	27.6 µM (inactive)	24.4 µM (inactive)	28.9 µM (inactive)		15.7 µM (inactive)	37.2 µM (inactive)		42.2 µM (inactive)	0.146 µM (active)	> 100 µM (inactive)	18.1 µM (inactive)	51.9 µM (inactive)	> 100 µM (inactive)	19.8 µM (inactive)	7.24 µM (inactive)	3.7 µM (inactive)	73.6 µM (inactive)
O=S(=O)(O)c1ccc2cc(/N=N/c3c(O)ccc4ccccc34)ccc2c1	> 100 µM (inactive)	> 100 µM (inactive)	> 100 µM (inactive)		82.6 µM (inactive)	> 100 µM (inactive)	> 100 µM (inactive)	> 100 µM (inactive)	> 100 µM (inactive)	> 100 µM (inactive)	> 100 µM (inactive)	> 100 µM (inactive)		> 100 µM (inactive)	> 100 µM (inactive)	> 100 µM (inactive)	> 100 µM (inactive)	> 100 µM (inactive)	> 100 µM (inactive)	> 100 µM (inactive)
CCC1c2[nH]c3ccccc3c2C[C@H]2C(=O)NC(Cc3ccccc3)C(=O)N12 (some centres undefined)	28.8 µM (inactive)	33.6 µM (inactive)	34.9 µM (inactive)	22.1 µM (inactive)	19.7 µM (inactive)	38.5 µM (inactive)	24.4 µM (inactive)	30.3 µM (inactive)	20.9 µM (inactive)	34.5 µM (inactive)	34.2 µM (inactive)	21.4 µM (inactive)	40 µM (inactive)	36 µM (inactive)	34.8 µM (inactive)	25.2 µM (inactive)	20.2 µM (inactive)	20.7 µM (inactive)	21.2 µM (inactive)	
Cc1cc(C)c2c(O)cc(-c3cccc(Cl)c3)nc2n1	0.2 µM (active)	77.3 µM (inactive)	0.208 µM (active)	0.273 µM (active)	0.18 µM (active)	0.514 µM (active)	0.0492 µM (active)	> 25 µM (inactive)		0.4 µM (active)	21.9 µM (inactive)	0.161 µM (active)	5.09 µM (inactive)	0.261 µM (active)	0.438 µM (active)		0.0115 µM (active)	0.0316 µM (active)	0.0855 µM (active)	0.229 µM (active)
